Data: patent publication USRE38962E1, “Diphenyl-triazole derivatives and their use as anti-gestative immuno-suppressant and anti-tumoral agents” (Geange Ltd., priority 1997, dated 2006)
Marks after values point to notes of the source that are not given here.

Assays:
[1] = tested on: Sheep Red Blood Cells (SRBC); experiment: IgM antibody response to SRBC (direct plaque forming cells in spleen); type: in vivo, B6D2F1 mice; conditions: antigen SRBC, dosing day 0, 8.60 μmoles/Kg/day; vehicle 124 + 18; p < 0.01
Description: (§1) In detail, the Antibody Response to Sheep Red Blood Cells (SRBC) and to Lipo-polysaccharide (LPS), was studied in B6D2F1 mice injected intravenously 10^8 SRBC (day 0). Direct (IgM) and indirect (IgG) plaque forming cells (PFC) were evaluated in the spleen 4 and 10 days later, Jerne et al. Science 140, 405 (1963) and Dresser and Wortis, Nature, 208, 859(1965).

[2] = tested on: Beagle bitches; experiment: Contragestational effect in Beagle bitches after a single intramuscular dose; type: in vivo; conditions: for Pregnancy arrest (%): single i.m. 5 mg/kg (11.1 μmoles/kg)
Description: The compound was given intramuscularly in one depot site of the thigh muscle of the right hind leg dissolved in sesame oil at the dose of 5 mg/kg (11.1 μmoles/kg , […], 0.2 mL/kg). The anti-gestative effectiveness was ascertained by exploratory laparatomy examining uterine horns where the presence of live or dead foetuses was deduced from the dimension and appearance of each uterine swelling, for methodological reference see G. Galliani et al., J. Small Animal Practice, 25, 211-222 (1984).

[3] = Acute toxicity studies; conditions: in vivo
Description: Acute toxicity studies did show as the lethal doses of compounds (VI), LD50>500 mg/kg, are of three order of magnitude higher than those anti-gestative.

[4] = tested on: Sheep Red Blood Cells (SRBC); experiment: IgG antibody response to SRBC (indirect plaque forming cells in spleen); type: in vivo, B6D2F1 mice; conditions: dosing day 0, 2.15 μmoles/Kg/day; vehicle 24 + 3
Description: as §1
(§2) Indirect PCF were developed with rabbit anti-serum to mouse gamma globulin. B6D2F1 mice were immunised with 20 μg LPS intra-peritoneally. Four days later, PCF were determined in the spleen by SRBC coated with LPS, Moller, Nature, 207, 1166(1965).

[5] = tested on: Lipo-polysaccharide (LPS); experiment: IgM antibody response to LPS (plaque forming cells in spleen); type: in vivo, B6D2F1 mice; conditions: antigen LPS, dosing day 0, 8.60 μmoles/Kg/day; vehicle 10 + 2; p < 0.01
Description: as §1, §2

[6] = tested on: SRBC; experiment: Delayed type hypersensitivity (DTH), footpad swelling; type: in vivo, C57B1/6 mice; conditions: dosing day 0, 3.60 μmoles/Kg/day; vehicle 11.4 + 3.7
Description: Delayed Type hypersensitivity (DTH), was carried out in C57B1/6 mice administered subcutaneously 2×10^8 SRBC emulsified in complete Freund's adjuvant. Ten days later an eliciting dose of 10^8 SRBC was inoculated into a footpad. The DTH reaction was recorded 24 hours later by measuring the footpad swelling (Kerckhaert et al, i Cell Immunology, 29, 232, (1977).

[7] = tested on: grafts of skin from C3H (H-2^k) donor mice; experiment: Skin graft survival time (C3H donor onto C57B1/6 recipient); type: in vivo, C57B1/6 mice; conditions: dosing days −1, 7, 17.20 μmols/Kg/day; vehicle 10.7 + 0.4
Description: For the Skin Grafting, fitted pinch, grafts of skin from C3H (H-2^k) donor mice were transplanted onto C57B1/6 (H-2^b) recipient mice (Mistrello et al,. 1984) Bandages were removed 7 days later and graft were scored daily by microscopy. Rejection was recorded when no viable epidermis remained. The median survival time (MST) of the grafts, measured as days, was calculated according to Litchfield (1949).

[8] = tested on: human chorio-carcinoma; experiment: Growth of human chorio-carcinoma transplanted into nude mice; type: in vivo
[9] = tested on: S.D. Rats; experiment: Pregnancy termination activity in S.D. rats after a single subcutaneous injection at day 7 of gestation; type: in vivo, Sprague Dawley rats; conditions: single subcutaneous injection on day 7 of gestation; for ED50: Rattus norvegicus, sc, autopsy day 16, read-out: ED50 (dose terminating pregnancy, absence of live foetuses, in 50% of treated animals); for ED50 (dose terminating pregnancy in 50% of treated animals): autopsy day 16
Description: In particular, female Sprague Dawley rats weighing 200-230 g. were mated and the presence of sperm was detected, was considered day one of pregnancy.
Pregnancy was later confirmed at the time of autopsy by the presence of implantation sites in the uterus.
Test compounds dissolved in sesame oil containing 20% benzyl benzoate (or suspended if insoluble), were administered subcutaneously, in a single injection, on day 7 of gestation. The animals were then autopsied on day 16 of pregnancy and the uteri were examined for evidence of pregnancy (implantation sites, foetal resorption or live foetuses), haemorrhage, and evidence of abnormalities of the uterus, placenta or foetuses, for reference see G. Galliani et al. Contraception, 23, 163-180 (198).
These values identify the dose levels which terminate pregnancy (absence of live foetuses) in 50% of the treated animals.

With `CCCCCCCCOC(=O)OCc1ccccc1-c1n[nH]c(-c2cccc(OCC)c2)n1` [(VI)] the “PCF/spleen.10^−3 (mean = S.D.), IgM response” value [1] was 12 + 3* PCF/spleen.10^−3, the “Pregnancy arrest (%)” value ([2]; administered day 15 of gestation) was 80% and the “Pregnancy arrest (%)” value ([2]; administered day 20 of gestation) was 100%. The “Pregnancy arrest (%)” value ([2]; administered day 25 of gestation) was 100%, the “Tolerability” value ([2]; single intramuscular dose) was “very well tolerated” and the “Anti-gestative effectiveness” value ([2]; single intramuscular dose between day of mating and 25th day of gestation) was “highly effective”. For the same compound, the LD50 [3] was greater than 500 mg/kg, the “PFC/SPLEEN.10^−3 (mean + S.D.), IgG response to SRBC” value [4] was 3 + 3* PFC/SPLEEN.10^−3 and the “PCF/spleen.10^−3 (mean = S.D.), IgM response” value [5] was 3 + 1* PCF/spleen.10^−3. The “FOOTPAD SWELLING UNITS (Mean + S.D.), DTH” value [6] was 5.2 + 1.2** UNITS, the “MST, days (mean ± S. D.), skin graft median survival time” value [7] was 15.1 + 0.6* days and the “Potency compared with methotrexate” value ([8]; human chorio-carcinoma transplanted into nude mice) was “even higher than that displayed by methotrexate”. For the same compound, the “Inhibition of the growth of human chorio-carcinoma” value ([8]; transplanted into nude mice) was “highly effective”, the ED50 [9] was 2 mg/kg and the “ED50 (dose terminating pregnancy in 50% of treated animals)” value [9] was 4.4 µmol/kg.
For `CCCCOC(=O)OCc1ccccc1-c1n[nH]c(-c2cccc(OCC)c2)n1` [(XIV)], the ED50 [9] was 8 mg/kg and the “ED50 (dose terminating pregnancy in 50% of treated animals)” value [9] was 20.3 µmol/kg.
For `CCOC(=O)OCc1ccccc1-c1n[nH]c(-c2cccc(OCC)c2)n1` [(XV)], the ED50 [9] was 15 mg/kg and the “ED50 (dose terminating pregnancy in 50% of treated animals)” value [9] was 27.2 µmol/kg.
For `CCCCCCOC(=O)OCc1ccccc1-c1n[nH]c(-c2cccc(OCC)c2)n1` [(XVI)], the ED50 [9] was 5 mg/kg and the “ED50 (dose terminating pregnancy in 50% of treated animals)” value [9] was 11.8 µmol/kg.
In the case of `CCOc1cccc(-c2n[nH]c(-c3ccccc3CO)n2)c1` [D, 5-(2-Hydroxymethylphenyl)-3-(3-ethoxy-phenyl)-1H-1,2,4-triazole, reference compound], the ED50 [9] is reported as 16 mg/kg and the “ED50 (dose terminating pregnancy in 50% of treated animals)” value [9] is reported as 54.6 µmol/kg.
